In US8226976B2, “Method of using cell-free protein synthesis to produce a membrane protein” (Riken, priority 2007, dated 2012):

Key:
[1] = tested on: cell-free protein synthesis system (S30 extract); experiment: cell-free synthesis of BR by the dialysis method with the cholate concentration kept constant; type: biochemical, E. coli; conditions: 1% sodium cholate added to internal and external dialysis solutions; FIG. 2, Lanes 3, 4
Protocol: A protein synthesis reaction was performed as follows: an internal solution of the composition as shown in table 1 as mentioned below was supplied with 100 μM all-trans retinal at final concentration (Sigma), 9 μg of synthetic plasmid as necessary, a predetermined concentration of a detergent, and 6 mg of egg yolk phosphatidylcholine (Type XVI-E, Sigma) to prepare a reaction solution, 0.9 ml of which was poured into a dialysis membrane (Spectra/Por 7, Molecular Weight Cut Off: 15000, Spectrum). The synthesis reaction was performed at 30° C. for 6 h during dialysis which was to 10 times volume of external solution (9 mL) in a 15 mL conical tube by rotary shaking with a rotary shaker (RT-50, TAITEC). […]
After termination of the synthesis reaction, the reaction internal solution was centrifuged at 15000 rpm for 10 min. […] Scatter correction was performed by subjecting the determined scores from 680 nm to 750 nm to linear regression to subtract from the measured spectrums. The amount of an active BR was calculated from the score of the spectrum of 560 nm as subjected to the scatter correction using the molar absorption coefficient: 42000 and the molecular weight: 31.4 k. […]

[2] = in water; cited from earlier work

Row | Structure (SMILES) | synthesis of BR (effect of inhibiting protein synthesis) [1] | critical micelle concentration (cmc) [2]
1 | C[C@H](CCC(=O)[O-])[C@H]1CC[C@H]2[C@@H]3[C@H](O)C[C@@H]4C[C@H](O)CC[C@]4(C)[C@H]3C[C@H](O)[C@]12C.[Na+] [sodium cholate] | synthesis of BR was not found | 0.41 % (w/v)
2 | C[C@@H]1CC[C@@]2(OC1)O[C@H]1[C@@H](O)[C@H]3[C@@H]4CC[C@H]5C[C@@H](O[C@@H]6O[C@H](CO)[C@H](O[C@@H]7O[C@H](CO)[C@@H](O)[C@H](O[C@@H]8OC[C@@H](O)[C@H](O)[C@H]8O)[C@H]7O[C@@H]7O[C@H](CO)[C@H](O)[C@H](O[C@@H]8O[C@H](CO)[C@@H](O)[C@H](O)[C@H]8O)[C@H]7O)[C@H](O)[C@H]6O)[C@H](O)C[C@]5(C)[C@H]4CC[C@]3(C)[C@H]1[C@@H]2C [digitonin] | – | 0.06 % (w/v)
3 | C[C@H](CCC(=O)NCCC[N+](C)(C)CCCS(=O)(=O)[O-])[C@H]1CC[C@H]2[C@@H]3[C@H](O)C[C@@H]4C[C@H](O)CC[C@]4(C)[C@H]3C[C@H](O)[C@]12C [CHAPS, 3-[(3-cholamidepropyl)dimethylammonio]-1-propanesulfonate] | – | 0.49 % (w/v)
